Test results as given in patent publication US4199573A, “Diazaborines and drug compositions” (Grunenthal GmbH, priority 1978, dated 1980).
Converted amounts (≈) assume the structure as drawn. Where two headings read alike, the source gives them in different places.

Key:
[1] = test system: E. coli; assay: Mice infected with E. coli, CD50 (Tables I, II, IV); assay type: in vivo; conditions: Escherichia coli
Protocol: (§1) Typical of the compounds of the class are very active antimicrobial agents, especially against gram-negative bacteria, in particular E. coli. For instance, the following values of the CD50 were determined on administering the listed compounds of formula I, in which R1 is as defined in the following Table I, Antimicrobial Activity, R2 and R3 are hydrogen and wherein R4 is sodium to mice infected with the bacteria shown.
(§2) CD50 = Dose in mg of compound/kg of mouse body weight which cures th
(§3) infection in 50% of the animals

[2] = test system: Proteus mirabilis; assay: Mice infected with Proteus mirabilis, CD50 (Table II); assay type: in vivo; conditions: read-out: DC50 (the source's name)
Source text: as §2, §3

[3] = test system: Proteus vulgaris; assay: Mice infected with Proteus vulgaris, CD50 (Table II); assay type: in vivo; conditions: read-out: DC50 (the source's name)
Source text: as §2, §3

[4] = test system: Klebsiella aeruginosa; assay: Mice infected with Klebsiella aeruginosa, CD50 (Table II); assay type: in vivo; conditions: read-out: DC50 (the source's name)
Source text: as §2, §3

[5] = test system: E. coli; assay: Minimum inhibitory concentration, E. coli; assay type: cell-based; conditions: Escherichia coli
[6] = test system: Proteus mirabilis; assay: Minimum inhibitory concentration, Proteus mirabilis; assay type: cell-based
[7] = test system: Proteus vulgaris; assay: Minimum inhibitory concentration, Proteus vulgaris; assay type: cell-based
[8] = test system: Klebsiella aeruginosa; assay: Minimum inhibitory concentration, Klebsiella aeruginosa; assay type: cell-based
[9] = test system: S. typhimurium; assay: Minimum inhibitory concentration, S. typhimurium; assay type: cell-based; conditions: Salmonella enterica
[10] = test system: B. proteus; assay: Mice infected with B. proteus, CD50; assay type: in vivo; conditions: Mus musculus
Protocol: as §1, §2, §3
(§4) The compounds of the invention also show effectiveness against other gram-negative bacteria.

[11] = test system: Klebsiella pneumoniae; assay: Mice infected with Klebsiella pneumoniae, CD50; assay type: in vivo
Protocol: as §1, §2, §3, §4

[12] = sc, Table II, infected mice, E. coli, s.c., read-out: DC50 (the source's name)
[13] = po, Table I, mice infected with E. coli, p.o., R4 = sodium, read-out: CD50 (the source's name)
[14] = sc, Table I, mice infected with E. coli, s.c., R4 = sodium, read-out: CD50 (the source's name)

SMILES: CCCS(=O)(=O)N1N=Cc2cc(F)ccc2B1O [Compound 11]
- ED50 ([1]; po, read-out: DC50): 6.95 mg/kg
- ED50 [1, 12]: 5.65 mg/kg
- ED50 ([2]; po): 13.9 mg/kg
- ED50 ([2]; sc): 7.45 mg/kg
- ED50 ([3]; po): 13.9 mg/kg
- ED50 ([3]; sc): 7.45 mg/kg
- ED50 ([4]; po): 5.65 mg/kg
- ED50 ([4]; sc): 4.25 mg/kg
- MIC [5]: 4 µg/mL (≈ 14.8 µM)
- MIC [6]: 4 µg/mL (≈ 14.8 µM)
- MIC [7]: 4 µg/mL (≈ 14.8 µM)
- MIC [8]: 8 µg/mL (≈ 29.6 µM)
- MIC [9]: 8 µg/mL (≈ 29.6 µM)

SMILES: O=S(=O)(CCl)N1N=Cc2ccccc2B1O [Compound 7]
- ED50 [1, 13]: 12.4 mg/kg
- ED50 [1, 14]: 11.8 mg/kg

SMILES: CC(Cl)S(=O)(=O)N1N=Cc2ccccc2B1O (stereo not shown) [Compound 8]
- ED50 [1, 13]: 17.7 mg/kg
- ED50 [1, 14]: 14.8 mg/kg

SMILES: CC(C)S(=O)(=O)N1N=Cc2ccccc2B1O [Compound 3]
- ED50 [1, 13]: 12.5 mg/kg
- ED50 [1, 14]: 9.2 mg/kg

SMILES: O=S(=O)(CCCCl)N1N=Cc2ccccc2B1O [Compound 9]
- ED50 [1, 13]: 22.7 mg/kg
- ED50 [1, 14]: 21.8 mg/kg

SMILES: CCCCS(=O)(=O)N1N=Cc2ccccc2B1O [Compound 4]
- ED50 [1, 13]: 11.2 mg/kg
- ED50 [1, 14]: 5.85 mg/kg

SMILES: CCCS(=O)(=O)N1N=Cc2ccccc2B1O [Compound 2]
- ED50 [1, 13]: 7 mg/kg
- ED50 [1, 14]: 6.7 mg/kg
- ED50 ([10]; per oral (p.o.)): 18.7 mg/kg
- ED50 ([10]; sc, subcutaneous (s.c.)): 11.7 mg/kg
- ED50 ([11]; po): 11.3 mg/kg
- ED50 ([11]; sc): 6.75 mg/kg
- MIC [5]: 4 µg/mL (≈ 15.9 µM)
- MIC [6]: 32 µg/mL (≈ 127 µM)
- MIC [7]: 32 µg/mL (≈ 127 µM)
- MIC [8]: 8 µg/mL (≈ 31.7 µM)
- MIC [9]: 16 µg/mL (≈ 63.5 µM)

SMILES: CC(C)CS(=O)(=O)N1N=Cc2ccccc2B1O [drawing 4]
- MIC [5]: 8 µg/mL (≈ 30.1 µM)
- MIC [6]: 16 µg/mL (≈ 60.1 µM)
- MIC [7]: 16 µg/mL (≈ 60.1 µM)
- MIC [8]: 4 µg/mL (≈ 15 µM)
- MIC [9]: 4 µg/mL (≈ 15 µM)

SMILES: CCCS(=O)(=O)N1N=Cc2cc(CC)ccc2B1O [CH2CH2CH3, C2 H5]
- MIC [5]: 4 µg/mL (≈ 14.3 µM)
- MIC [6]: 8 µg/mL (≈ 28.6 µM)
- MIC [7]: 2 µg/mL (≈ 7.14 µM)
- MIC [8]: 1 µg/mL (≈ 3.57 µM)
- MIC [9]: 2 µg/mL (≈ 7.14 µM)

SMILES: CCS(=O)(=O)N1N=Cc2ccccc2B1O [Compound 1]
- ED50 [1, 13]: 11 mg/kg
- ED50 [1, 14]: 9.8 mg/kg

SMILES: Cc1ccc2c(c1)C=NN(S(=O)(=O)CCCCl)B2O [Compound 10]
- ED50 ([1]; po, read-out: DC50): 9.8 mg/kg
- ED50 [1, 12]: 8.8 mg/kg
- ED50 ([2]; po): 9.15 mg/kg
- ED50 ([2]; sc): 7.45 mg/kg
- ED50 ([3]; po): 8.6 mg/kg
- ED50 ([3]; sc): 8.4 mg/kg
- ED50 ([4]; po): 9.15 mg/kg
- ED50 ([4]; sc): 6.95 mg/kg
- MIC [5]: 2 µg/mL (≈ 6.65 µM)
- MIC [6]: 4 µg/mL (≈ 13.3 µM)
- MIC [7]: 4 µg/mL (≈ 13.3 µM)
- MIC [8]: 1 µg/mL (≈ 3.33 µM)
- MIC [9]: 1 µg/mL (≈ 3.33 µM)

SMILES: Cc1ccc2c(c1)C=NN(S(=O)(=O)CC(C)C)B2O
- MIC [5]: 2 µg/mL (≈ 7.14 µM)
- MIC [6]: 8 µg/mL (≈ 28.6 µM)
- MIC [7]: 4 µg/mL (≈ 14.3 µM)
- MIC [8]: 2 µg/mL (≈ 7.14 µM)
- MIC [9]: 8 µg/mL (≈ 28.6 µM)

SMILES: Nc1ccc(S(=O)(=O)N2N=Cc3ccccc3B2O)c(Cl)c1 [1-hydroxy-2(2'-chloro-4'-amino-phenylsulfonyl) benzo-2,3,1-diazaborine, reference compound]
- ED50 ([1]; po, Table IV, comparative, E. coli, p.o., read-out: CD50 (the source's name)): 36 mg/kg
- ED50 ([1]; sc, Table IV, comparative, E. coli, s.c., read-out: CD50 (the source's name)): 13.5 mg/kg

SMILES: CCc1ccc2c(c1)C=NN(S(=O)(=O)CCCCl)B2O [CH2CH2CH2Cl, C2 H5]
- MIC [5]: 4 µg/mL (≈ 12.7 µM)
- MIC [6]: 2 µg/mL (≈ 6.36 µM)
- MIC [7]: 4 µg/mL (≈ 12.7 µM)
- MIC [8]: 2 µg/mL (≈ 6.36 µM)
- MIC [9]: 2 µg/mL (≈ 6.36 µM)

SMILES: C=CCS(=O)(=O)N1N=Cc2ccccc2B1O [Compound 6]
- ED50 [1, 13]: 13.2 mg/kg
- ED50 [1, 14]: 13.2 mg/kg

SMILES: O=S(=O)(CCCCl)N1N=Cc2cc(F)ccc2B1O [CH2CH2CH2 Cl, F]
- MIC [5]: 16 µg/mL (≈ 52.5 µM)
- MIC [6]: 16 µg/mL (≈ 52.5 µM)
- MIC [7]: 8 µg/mL (≈ 26.3 µM)
- MIC [8]: 8 µg/mL (≈ 26.3 µM)
- MIC [9]: 4 µg/mL (≈ 13.1 µM)

SMILES: CC(C)CS(=O)(=O)N1N=Cc2ccccc2B1O [drawing 2]
- ED50 ([1]; po, read-out: CD50): 8.85 mg/kg
- ED50 ([1]; sc, read-out: CD50): 10.6 mg/kg

SMILES: CCCCCS(=O)(=O)N1N=Cc2ccccc2B1O [(CH2)4CH3, H]
- MIC [5]: 32 µg/mL (≈ 114 µM)
- MIC [6]: 32 µg/mL (≈ 114 µM)
- MIC [7]: 32 µg/mL (≈ 114 µM)
- MIC [8]: 8 µg/mL (≈ 28.6 µM)
- MIC [9]: 16 µg/mL (≈ 57.1 µM)
